Reference: patent US7335665B2, “Spirocyclic piperidines as MCH1 antagonists and uses thereof” (H - Lundbeck A/S, priority 2003, dated 2008)

Experiments:
MCH-1 receptor [1] = settings: rat and human MCH-1; cited from earlier work
MCH-1 receptor [2] = target: T1, MCH-1 receptor (Rattus norvegicus, UniProt P97639); settings: in vivo; cited from earlier work
T1 construct: host or cells: in vivo, endogenous receptor of the animal

G4F-7 cells = settings: cited from earlier work
rat MCH1 receptor = target: T2, rat MCH1 receptor (Rattus norvegicus, UniProt P97639); test: Radioligand binding assay at cloned rat MCH1 receptor ([3H]Compound A displacement); settings: KI, cloned rat MCH1, membranes of transfected Peakr293 cells, 0.08 nM [3H]Compound A, 25° C., 90 minutes
T2 construct: expressed in transfected cells; host or cells: Human embryonic kidney Peak rapid 293 cells (Peakr293), transient, calcium phosphate; membranes
T2 sequence (P97639 whole entry): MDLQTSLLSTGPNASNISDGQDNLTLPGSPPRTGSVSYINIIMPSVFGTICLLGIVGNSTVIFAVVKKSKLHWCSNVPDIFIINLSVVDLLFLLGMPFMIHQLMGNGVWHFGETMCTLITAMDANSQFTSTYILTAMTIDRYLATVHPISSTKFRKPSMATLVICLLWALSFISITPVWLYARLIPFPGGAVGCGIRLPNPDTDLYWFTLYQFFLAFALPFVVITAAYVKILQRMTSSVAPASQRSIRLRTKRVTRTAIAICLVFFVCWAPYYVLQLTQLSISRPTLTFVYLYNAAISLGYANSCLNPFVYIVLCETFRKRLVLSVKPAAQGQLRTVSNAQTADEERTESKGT
In short: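 Membranes from Peakr293 cells transiently transfected with rat MCH1 receptor were incubated with 0.08 nM [3H]Compound A in 50 mM Tris pH 7.4, 10 mM MgCl2, PMSF, 1,10-phenanthroline and 0.2% BSA, 90 min at 25° C. Bound ligand was collected by filtration; nonspecific binding was defined with […] Compound A.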

T1 sequence (P97639 whole entry): as above

In the case of `CN(C)CC1CCc2cc(NC(=O)c3ccc(-c4ccc(F)cc4)cc3)ccc2C1` (centres unmarked) [Example T-226296], the “affinity for the MCH-1 receptor” value (MCH-1 receptor [1]) is listed as 5 to 9 nM and the “food intake induced by the intracerebroventricular application of MCH” value (MCH-1 receptor [2]) is listed as “inhibit food intake”.

In the case of [Phe^13,Tyr^19]-MCH, the Kd (G4F-7 cells; radioiodinated ligand, G4F-7 mouse melanoma cells) is listed as 0.118 nM.

In the case of “native MCH: Melanin-concentrating hormone, cyclic peptide”, the Ki (G4F-7 cells; inhibition of radioiodinated [Phe13,Tyr19]-MCH binding) is listed as 12 nM.

For `O=C(NCCCN1CCC2(CC1)OCc1cc(F)c(F)c(F)c12)C(c1ccccc1)c1ccccc1` [Example 99, 2,2-DIPHENYL-N-[3-(4,5,6-TRIFLUOROSPIRO[1,3-DIHYDROISOBENZOFURAN-3,4′-PIPERIDINE]-10-YL)PROPYL]ACETAMIDE], the Ki (rat MCH1 receptor) was 11.6 nM.
